From patent US20210315969A1, “GLYCOPROTEINS HAVING LIPID MOBILIZING PROPERTIES AND THERAPEUTIC USES THEREOF” (Aston University, priority 2008, published 2021) come the findings set out here.

One test concerns murine myotubes. Put plainly: Protein degradation and synthesis in myotubes subjected to high glucose. The format is cell-based. The procedure: FIGS. 18A and 18B is a graphical diagram showing phenylalanine release (FIG. 18A) and protein synthesis (FIG. 18B) in C2Cl2 myotubes treated with and without ZAG for 4 h in the presence of various concentrations of glucose. Statistically significant c, P<0.001 from control; f, P<0.001 from glucose alone.
Statistically significant b, P<0.01 and c, P<0.001 from control; e, P<0.05 and f, P<0.001 from glucose alone.
Statistically significant b, P<0.01 and c, P<0.001 from control; e, P<0.05 and f, P<:0.001 from glucose alone; I, P<0.001 from glucose+SR.
This utilizes murine myotubes subjected. to high concentrations of glucose (10 or 25 mM).

A further test concerns adipocytes. Kind of test: Expression of phospho HSL / HSL in adipocytes incubated 3 h with ZAG or isoprenaline. The format is cell-based, mice.
Another test concerns epididymal adipocytes. Put plainly: Lipolytic assay (glycerol release) in isolated mouse adipocytes. The format is cell-based, mice. The conditions noted are these: any adipocyte group. The procedure:
Cell Culture and Purification of ZAG—Single-cell suspensions of white adipocytes were prepared from minced adipose deposits by incubation at 37° C. for […] in Krebs-Ringer biocarbonate buffer containing 1.5 ingml^−1 collagenase, and 4% bovine serum albumin under an atmosphere of 95% oxygen:5% CO2 as previously described. For time-course studies adipocytes were suspended in DMEM containing 10% fetal calf serum at a concentration of 10^5 cells ml^−1 and maintained under an atmosphere of 10% CO2 in air at 37° C. Human 293 cells transfected with a plasmid containing human ZAG were seeded at a concentration of 10^5 cells ml^−1 in FreeStyle medium and maintained under an atmosphere of 5% CO2 in air at 37° C. Maximal protein levels (16 μgml^−1) were obtained after 14 days of culture. […]
Lipolytic Assay—Samples to be assayed were incubated with 10^5 to 2×10^5 adipocytes for 2 h in 1 ml Krebs-Ringer bicarbonate buffer, pH 7.2. The concentration of glycerol released was determined enzymatically by the method of Wieland (Wieland, O. Glycerol UV method. In Methods of Enzymatic Analysis (ed. Bergmeyer, H. U.) (Academic Press, London, UK, pp 1404-1409, 1974)). Control samples containing adipocytes alone were analysed to determine the spontaneous glycerol release. Activity was expressed as nmol glycerol released/10^5 adipocytes/2 h.

For the molecule `CCc1ccccc1OC[C@@H](O)CN[C@H]1CCCc2ccccc21` [SR59230A], in the test on murine myotubes (10 and 25 mM glucose), the “combination of ZAG and SR59230A on glucose induced protein degradation” value was “additive rather than antagonistic”. The “protein degradation induced by 10 and 25 mM glucose” value in the test on murine myotubes (myotubes) was “attenuated”. Also, in the test with murine myotubes (with 10 mM glucose), the protein synthesis result was “causes an increase in the depression of protein synthesis”.

As to `COc1cccc(-c2cc(=O)c3ccccc3o2)c1N` [PD98059], in the test on adipocytes (PD98059 10 μM, adipocytes incubated with ZAG for 3 h), the “effect on ZAG-induced expression of HSL in ep adipocytes” value was “attenuated the increase in expression of HSL”.

As for `CC(C)NCC(O)c1ccc(O)c(O)c1` (stereo not drawn) [isoprenaline], in the test with epididymal adipocytes, the “extent of stimulation of lipolysis, isoprenaline versus ZAG” value is on record as “no significant difference”. Further, in the test on adipocytes (3 h, isoprenaline 10 μM or ZAG 0.46 μM), the “expression of phospho HSL in adipocytes” value is on record as “not”.
